# Measurements from patent US10022315B2, “Oral composition for reinforcing skin tolerance following topical administration of a retinoid compound” (NUTRICOS TECHNOLOGIES, priority 2012, dated 2018).
# Experiments:
# Type in all cases: in vivo, human
# menopausal women [1] = assay: Clinical study: evaluation by the patients of skin signs associated with the side effects of retinoic acid (none/mild/moderate/severe, on the face)
# Description: (§1) The beneficial effect, in terms of reinforcing skin tolerance, of the food supplement of example 1 was assessed in a clinical study carried out according to the protocol which follows:
# (§2) The study performed under dermatological control (30 dermatologists) was carried out in menopausal women (n=203), from 50 to 66 years old and showing moderate signs of photo-aging on the face.
# (§3) These women were divided up into two treatment groups: • group 1 treated with 0.05% by weight retinoic acid, relative to the total weight of the composition, for 6 months at a rate of one application per day (control group), • group 2 treated with 0.05% by weight retinoic acid, relative to the total weight of the composition, for 6 months at a rate of one application per day, combined with daily intake of the food supplement as described in example 1. 3.1 Evaluation of Symptoms
# (§4) The symptoms associated with skin tolerance were evaluated after 60, 120 and 180 days by, on the one hand, dermatologists and, on the other hand, by the subjects themselves.
# During the last 2 months, have you experienced on the face
# menopausal women [2] = assay: Clinical study: overall evaluation of skin tolerance to the treatments by the dermatologists (questionnaire)
# Description: as §1, §2, §3
# (§5) Skin tolerance to the treatments was checked after 60, 120 and 180 days by means of questionnaires given to the dermatologists and the subjects participating in the study.
# (§6) Tables 1 (evaluations by the dermatologists) and 2 (self-evaluation by the subjects) summarize the skin tolerance results obtained in groups 1 and 2. The results are expressed as of subjects, in reply to the following question: “do you consider thus far that the tolerance to the treatment is”. The possible replies were excellent, good, average and poor.
# menopausal women [3] = assay: Clinical study: evaluation by dermatologists of skin signs associated with the side effects of retinoic acid (score 0-9, on the face); settings: scale 0-9, face
# Description: as §1, §2, §3, §4
# Dermatologist Scoring Scale
# menopausal women [4] = assay: Clinical study: overall evaluation of skin tolerance to the treatments by the subjects (questionnaire)
# Description: as §1, §2, §3, §5, §6
structure (smiles),measurement,setting,value
"CC1=C(/C=C/C(C)=C/C=C/C(C)=C/C(=O)O)C(C)(C)CCC1 [GROUP 1, retinoic acid]","Desquamation, patients replying mild (Mi)",menopausal women [1]; D60,41%
same,"Desquamation, patients replying moderate (Mo)",menopausal women [1]; D60,21%
same,"Desquamation, patients replying severe (S)",menopausal women [1]; D60,1%
same,"Redness, patients replying mild (Mi)",menopausal women [1]; D60,46%
same,"Redness, patients replying moderate (Mo)",menopausal women [1]; D60,13%
same,"Redness, patients replying severe (S)",menopausal women [1]; D60,0%
same,"Signs of discomfort, patients replying mild (Mi)",menopausal women [1]; D60,42%
same,"Signs of discomfort, patients replying moderate (Mo)",menopausal women [1]; D60,15%
same,"Signs of discomfort, patients replying severe (S)",menopausal women [1]; D60,0%
same,"Tautness, patients replying mild (Mi)",menopausal women [1]; D60,49%
same,"Tautness, patients replying moderate (Mo)",menopausal women [1]; D60,10%
same,"Tautness, patients replying severe (S)",menopausal women [1]; D60,1%
same,"Desquamation, patients replying mild (Mi)",menopausal women [1]; D120,42%
same,"Desquamation, patients replying moderate (Mo)",menopausal women [1]; D120,14%
same,"Desquamation, patients replying severe (S)",menopausal women [1]; D120,0%
same,"Itching, patients replying mild (Mi)",menopausal women [1]; D120,42%
same,"Itching, patients replying moderate (Mo)",menopausal women [1]; D120,7%
same,"Itching, patients replying severe (S)",menopausal women [1]; D120,0%
same,"Redness, patients replying mild (Mi)",menopausal women [1]; D120,49%
same,"Redness, patients replying moderate (Mo)",menopausal women [1]; D120,7%
same,"Redness, patients replying severe (S)",menopausal women [1]; D120,1%
same,"Signs of discomfort, patients replying mild (Mi)",menopausal women [1]; D120,35%
same,"Signs of discomfort, patients replying moderate (Mo)",menopausal women [1]; D120,13%
same,"Signs of discomfort, patients replying severe (S)",menopausal women [1]; D120,0%
same,"Tautness, patients replying mild (Mi)",menopausal women [1]; D120,43%
same,"Tautness, patients replying moderate (Mo)",menopausal women [1]; D120,8%
same,"Tautness, patients replying severe (S)",menopausal women [1]; D120,0%
same,"Desquamation, patients replying mild (Mi)",menopausal women [1]; D180,35%
same,"Desquamation, patients replying moderate (Mo)",menopausal women [1]; D180,8%
same,"Desquamation, patients replying severe (S)",menopausal women [1]; D180,0%
same,"Itching, patients replying mild (Mi)",menopausal women [1]; D180,35%
same,"Itching, patients replying moderate (Mo)",menopausal women [1]; D180,4%
same,"Itching, patients replying severe (S)",menopausal women [1]; D180,0%
same,"Redness, patients replying mild (Mi)",menopausal women [1]; D180,35%
same,"Redness, patients replying moderate (Mo)",menopausal women [1]; D180,6%
same,"Redness, patients replying severe (S)",menopausal women [1]; D180,0%
same,"Signs of discomfort, patients replying mild (Mi)",menopausal women [1]; D180,31%
same,"Signs of discomfort, patients replying moderate (Mo)",menopausal women [1]; D180,7%
same,"Signs of discomfort, patients replying severe (S)",menopausal women [1]; D180,0%
same,"Tautness, patients replying mild (Mi)",menopausal women [1]; D180,35%
same,"Tautness, patients replying moderate (Mo)",menopausal women [1]; D180,7%
same,"Tautness, patients replying severe (S)",menopausal women [1]; D180,1%
same,"Itching, patients replying mild (Mi)",menopausal women [1]; J60 (D60),48%
same,"Itching, patients replying moderate (Mo)",menopausal women [1]; J60 (D60),15%
same,"Itching, patients replying severe (S)",menopausal women [1]; J60 (D60),0%
same,"Tolerance to the treatment judged Average by the dermatologists, subjects",menopausal women [2]; D60,24%
same,"Tolerance to the treatment judged Excellent by the dermatologists, subjects",menopausal women [2]; D60,15%
same,"Tolerance to the treatment judged Good by the dermatologists, subjects",menopausal women [2]; D60,62%
same,"Tolerance to the treatment judged Poor by the dermatologists, subjects",menopausal women [2]; D60,0%
same,"Tolerance to the treatment judged Average by the dermatologists, subjects",menopausal women [2]; D120,23%
same,"Tolerance to the treatment judged Excellent by the dermatologists, subjects",menopausal women [2]; D120,20%
same,"Tolerance to the treatment judged Good by the dermatologists, subjects",menopausal women [2]; D120,58%
same,"Tolerance to the treatment judged Poor by the dermatologists, subjects",menopausal women [2]; D120,0%
same,"Tolerance to the treatment judged Average by the dermatologists, subjects",menopausal women [2]; D180,15%
same,"Tolerance to the treatment judged Excellent by the dermatologists, subjects",menopausal women [2]; D180,23%
same,"Tolerance to the treatment judged Good by the dermatologists, subjects",menopausal women [2]; D180,63%
same,"Tolerance to the treatment judged Poor by the dermatologists, subjects",menopausal women [2]; D180,0%
same,"Pruritus, mean score (dermatologists)",menopausal women [3]; D0,0.6
same,"Sign of desquamation, mean score (dermatologists)",menopausal women [3]; D0,1.6
same,"Sign of redness, mean score (dermatologists)",menopausal women [3]; D0,1.2
same,"Sign of skin dryness, mean score (dermatologists)",menopausal women [3]; D0,3.2
same,"Pruritus, mean score (dermatologists)",menopausal women [3]; D60,1.2
same,"Sign of desquamation, mean score (dermatologists)",menopausal women [3]; D60,1.8
same,"Sign of redness, mean score (dermatologists)",menopausal women [3]; D60,1.6
same,"Sign of skin dryness, mean score (dermatologists)",menopausal women [3]; D60,2.7
same,"Pruritus, mean score (dermatologists)",menopausal women [3]; D120,0.9
same,"Sign of desquamation, mean score (dermatologists)",menopausal women [3]; D120,1.5
same,"Sign of redness, mean score (dermatologists)",menopausal women [3]; D120,1.3
same,"Sign of skin dryness, mean score (dermatologists)",menopausal women [3]; D120,2.2
same,"Pruritus, mean score (dermatologists)",menopausal women [3]; D180,0.6
same,"Sign of desquamation, mean score (dermatologists)",menopausal women [3]; D180,1.1
same,"Sign of redness, mean score (dermatologists)",menopausal women [3]; D180,1.0
same,"Sign of skin dryness, mean score (dermatologists)",menopausal women [3]; D180,1.7
same,"Tolerance to the treatment judged Average by the subjects, subjects",menopausal women [4]; D60,20%
same,"Tolerance to the treatment judged Excellent by the subjects, subjects",menopausal women [4]; D60,18%
same,"Tolerance to the treatment judged Good by the subjects, subjects",menopausal women [4]; D60,63%
same,"Tolerance to the treatment judged Poor by the subjects, subjects",menopausal women [4]; D60,0%
same,"Tolerance to the treatment judged Average by the subjects, subjects",menopausal women [4]; D120,21%
same,"Tolerance to the treatment judged Excellent by the subjects, subjects",menopausal women [4]; D120,25%
same,"Tolerance to the treatment judged Good by the subjects, subjects",menopausal women [4]; D120,54%
same,"Tolerance to the treatment judged Poor by the subjects, subjects",menopausal women [4]; D120,1%
same,"Tolerance to the treatment judged Average by the subjects, subjects",menopausal women [4]; D180,15%
same,"Tolerance to the treatment judged Excellent by the subjects, subjects",menopausal women [4]; D180,30%
same,"Tolerance to the treatment judged Good by the subjects, subjects",menopausal women [4]; D180,53%
same,"Tolerance to the treatment judged Poor by the subjects, subjects",menopausal women [4]; D180,2%
